Tests used:
[1] = target: T1, human (HsTIM) (Homo sapiens, UniProt P60174); assay: Selectivity assay, inhibition of HsTIM; format: biochemical; settings: read-out: inhibition against HsTIM
T1 construct: made in house; host or cells: Escherichia coli
Procedure: Expression and purification of proteins: FhTIM, RabbitTIM and HsTIM were expressed in Escherichia coli and purified as described in the literature[31],[37]. After purification, the enzyme, dissolved in 100 mM triethanolamine, 10 mM EDTA and 1 mM dithiothreitol (pH 8), was precipitated with ammonium sulfate (75% saturation) and stored at 4 °C. Before use, extensive dialysis against 100 mM triethanolamine/10 mM EDTA (pH 7.4) was performed. Protein concentration was determined by absorbance at 280 nm for FhTIM (ε = 33,460 M^−1cm^−1) and for RabbitTIM and HsTIM (ε = 33,460 M^−1cm^−1). Enzymatic activity was determined following the conversion of glyceraldehydes-3-phosphate into dihydroxyacetone phosphate in a coupled enzyme assay. The decrease in absorbance at 340 nm was followed in a multiplate reader VarioskanTM Flash Multimode Reader (Thermo ScientificTM, Waltham, MA, USA) at 38 °C. The reaction mixture (1 mL, pH 7.4) contained 100 mM triethanolamine, 10 mM EDTA, 0.2 mM NADH, 1 mM glyceraldehydes-3-phosphate and 0.9 units of α-glycerol phosphate dehydrogenase. The reaction was initiated by the addition of 5 ng/mL of the TIM of interest. For the inhibition studies, TIM was incubated at a concentration of 5 mg/mL in a buffer containing 100 mM triethanolamine, 10 mM EDTA, pH 7.4 and 10% of DMSO at 37 °C for 1 h. The mixture also contained the compounds, dissolved in DMSO, at the indicated concentrations. After 1 h, 10 µL were withdrawn and added to a final volume of 100 µL of the reaction mixture for the activity assay. The inhibition assay was performed in a 96-well microplate. None of the molecules tested here affected the activity of α-glycerol phosphate dehydrogenase, the enzyme used in the coupled assay. The IC50 value was taken as the concentration of drug needed to reduce the enzymatic activity to 50% by analysis using OriginLab8.5® sigmoidal regression (% of enzymatic activity vs. the logarithm of the compound concentration). The experiments were performed in triplicate in two independent experiments.

[2] = tested on: murine macrophages and bovine sperm; assay: Non-specific toxicity against mammalian cells; format: cell-based; settings: for Toxicity mammalian cells: selectivity index parasite vs. mammalian cells, fixed doses 25 and 100 µM
Procedure: As a proof of concept, we tested the best FhTIM inactivators against F. hepatica and S. mansoni parasites. Also, we use compound 191 as a non-inhibitor which has a closely related structure to that of compound 187. Some compounds were able to kill 100% of the newly excysted juvenile (NEJ) F. hepatica within 4 to 48 h (Table 2 and Fig. 2). […] In parallel, these compounds were assayed to characterize their non-specific toxicity against murine macrophages and bovine sperm. Both models are recommended by FDA as an in vitro prediction of toxicology.
J774.1 murine macrophage cells (ATCC, USA) were grown in DMEM culture milieu containing 4 mM glutamine and supplemented with 10% FCS[20]. The cells were seeded in a 96-well plate (5×10^4 cells in 200 µL culture medium) and incubated at 37 °C in a 5% CO2 atmosphere for 48 h, to allow cell adhesion prior to drug testing. Afterward, cells were exposed for 48 h to the compounds (25–400 µM) or the vehicle for control (0.4% DMSO), and additional controls (cells in medium) were used in each test. Cell viability was then assessed by measuring the mitochondria-dependent reduction of MTT (3-(4,5-dimethylthiazol-2-yl)-2,5-diphenyltetrazolium bromide) to formazan. For this purpose, MTT in sterile PBS (0.2% glucose), pH 7.4, was added to the macrophages to achieve a final concentration of 0.1 mg/mL, and the cells were incubated at 37 °C for 3 h. After removing the medium, formazan crystals were dissolved in 180 µL of DMSO and 20 µL of MTT buffer (0.1 M glycine, 0.1 M NaCl, 0.5 mM EDTA, pH 10.5), and the absorbance at 560 nm was measured. The IC50 was defined as the drug concentration at which 50% of the cells were viable, relative to the control (no drug added), and was determined by analysis using OriginLab8.5® sigmoidal regression (% of viable cells vs. the logarithm of the compound concentration). Tests were performed in triplicate.
Semen samples were obtained from a healthy fertile Hereford bull and kept frozen in 0.5 mL straws (extended in Andromed, Minitube, Germany[47]) under liquid nitrogen until use. The semen used belonged to a single freezing batch that was obtained during a regular collection schedule with an artificial vagina. Samples from three straws were thawed and a sperm pool was prepared in PBS at a concentration of 40 million spermatozoa per mL, then 50 μL of this sperm suspension was carefully mixed with 50 μL of compounds diluted to 100, 50, 25, 12.5 and 6.25 μM or with 1% DMSO in control experiments. Each condition was assayed by duplicate in 96-well plates and controls were assayed by triplicate. Plates were incubated at 37 °C for 1 h with moderate shaking. The motility analysis was carried out using a CASA (Computer Assisted Semen Analyzer) system Androvision (Minitube, Tiefenbach, Germany) with an Olympus BX 41 microscope (Olympus, Japan) equipped with a warm-stage at 37 °C. Each sample (10 μL) was placed onto a Makler Counting Chamber (depth 10 μm, Sefi-Medical Instruments, Israel) and the following parameters were evaluated: percentage of total motile spermatozoa (motility >5 μm/s) and velocity curved line (VCL, >24 μm/s). At least 400 spermatozoa were analyzed from each sample from at least four microscope fields.

[3] = tested on: F. hepatica infected mice; assay: Mouse infection with F. hepatica; format: in vivo, BALB/c mice; settings: for protection of mice from F. hepatica infection (clinical signs, Clinic Score): one dose 100 mg/kg orogastric, 1 week post-infection, read at 3 wpi; for transaminase profile at the end of the experiment: one dose 100 mg/kg, infected mice
Procedure: Six- to eight-week-old female BALB/c mice were obtained from DILAVE Laboratories[57] (Uruguay). Animals were kept in the animal house (URBE, Facultad de Medicina, UdelaR, Uruguay) with water and food supplied ad libitum. Mouse handling and experiments were carried out in accordance with strict guidelines from the National Committee on Animal Research (CNEA, Uruguay). All procedures involving animals were approved by the Universidad de la República’s Committee on Animal Research (CHEA Protocol Number: 070153-000180-16). BALB/c mice were orally infected with 10 F. hepatica metacercariae per animal. After 1 week post-infection (wpi), mice were intragastrically inoculated with compound 187 (100 mg/kg) or TCZ (100 mg/kg). At 3 wpi mice were bled and sacrificed. Peritoneal exudate cells, spleens, and livers were removed and analyzed. In order to evaluate the severity of the infection, a disease severity score was developed (Table 3S Supporting Information)[57], which was applied in blinded experiments. Alanine aminotransferase (ALT) activity in sera was determined using a commercial kit (Spinreact, Spain) according to the manufacturers’ instructions. PECs from infected and non-infected mice were washed twice with PBS containing 2% FBS and 0.1% sodium azide.

T1 sequence (P60174 whole entry): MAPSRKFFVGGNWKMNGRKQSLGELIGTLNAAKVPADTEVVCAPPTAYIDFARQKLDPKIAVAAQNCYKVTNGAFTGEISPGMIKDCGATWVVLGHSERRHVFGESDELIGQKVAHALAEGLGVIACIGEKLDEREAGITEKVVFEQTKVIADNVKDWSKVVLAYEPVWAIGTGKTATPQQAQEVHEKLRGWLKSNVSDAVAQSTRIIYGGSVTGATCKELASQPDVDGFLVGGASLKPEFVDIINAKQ

Row | Compound | inhibition at 100 µM [1] [%] | toxicity to mammalian cells in words ([2]; herein) | Toxicity mammalian cells [2] | protection of mice from F. hepatica infection (clinical signs, Clinic Score) [3] | transaminase profile at the end of the experiment [3]
1 | Cc1ccc(-c2nsc(S(=O)(=O)c3ccc(C)cc3)n2)cc1 [Compound 187] | < 20 | non-toxic | NT (when the IC50 vs. the parasite was at least 10 times less than the IC50 vs. the mammalian cells, we considered these compounds as non-toxic (NT)) | protected mice from the infection | according to a healthy liver
2 | CSc1nc2cc(Cl)c(Oc3cccc(Cl)c3Cl)cc2[nH]1 [Compound 1278, triclabendazole, reference compound] | < 20 | – | NT (when the IC50 vs. the parasite was at least 10 times less than the IC50 vs. the mammalian cells, we considered these compounds as non-toxic (NT)) | protected mice from the infection | according to a healthy liver
